pIC50: −log10 of the molar value.

This experiment deals with Sphingosine 1-phosphate receptor 3 (Homo sapiens, UniProt Q99500). The experiment can be described thus: S1P3 receptor NFAT-BLA reporter inhibition, dose response, counter-screen for 5HT1E antagonist project, CHO cells, Ga15, NFAT beta-lactamase, FRET (AID 776).
Sphingosine 1-phosphate receptor 3, sequence (Q99500 whole entry): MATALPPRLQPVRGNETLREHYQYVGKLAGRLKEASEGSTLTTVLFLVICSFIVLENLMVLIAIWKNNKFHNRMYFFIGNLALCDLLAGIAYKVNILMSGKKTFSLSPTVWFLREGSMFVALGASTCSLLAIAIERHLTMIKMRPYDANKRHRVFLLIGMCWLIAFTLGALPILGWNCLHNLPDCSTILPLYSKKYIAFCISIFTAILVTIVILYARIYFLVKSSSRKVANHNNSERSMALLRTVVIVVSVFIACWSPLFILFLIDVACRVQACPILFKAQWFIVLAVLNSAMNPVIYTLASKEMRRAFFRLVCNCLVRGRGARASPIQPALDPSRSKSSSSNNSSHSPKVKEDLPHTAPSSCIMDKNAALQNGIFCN
For orientation: pIC50 means the negative decadic logarithm of the IC50, by convention in mol/L. Low readings indicate a large IC50, high ones a small IC50. As to `Cc1ccc(-n2nc3c([n+]2[O-])CCc2c-3n[o+]n2[O-])cc1` [7-(4-methylphenyl)-3,6-dioxido-4,5-dihydrotriazolo[4,5-e][2,1,3]benzoxadiazole-3,6-diium], the pIC50 is 5.24.
With `Cn1c(-c2c(N)n(C3CCCC3)c3nc4ccccc4nc23)nc2ccccc21` [1-cyclopentyl-3-(1-methyl-2-benzimidazolyl)-2-pyrrolo[3,2-b]quinoxalinamine] the figure was 5.69; with `CCOc1ccc(C2=Nn3c(nnc3-c3ccccc3OC)SC2)cc1` [6-(4-ethoxyphenyl)-3-(2-methoxyphenyl)-7H-[1,2,4]triazolo[3,4-b][1,3,4]thiadiazine], below 4.91.
`OCC12C=CC(O1)c1c2c(O)n(-c2ccc(-c3ccccc3)cc2)c1O` (stereo not drawn) showed a pIC50 below 4.91.
With `COc1ccc(-c2cc(C(F)(F)F)nc(S(C)(=O)=O)n2)cc1OC` [4-(3,4-dimethoxyphenyl)-2-methylsulfonyl-6-(trifluoromethyl)pyrimidine] the figure was 5.29; with `CC(=O)Oc1ccc(-n2c(O)c3c(c2O)C2(C)C=CC3(C)O2)cc1` [MLS000107813], 5.12.
`COc1ccc(-n2nnnc2S(=O)(=O)CC(=O)N2CCCCC2)cc1` [2-[1-(4-methoxyphenyl)tetrazol-5-yl]sulfonyl-1-piperidin-1-ylethanone]: the pIC50 is 5.36.
Then `COc1cc(NS(=O)(=O)c2ccc(C)cc2)c2ncccc2c1` [SMR000071147], with below 4.41; and `COCCOC(=O)c1[nH]c2c(c1C)C(=O)CC(c1ccccc1)C2` (stereo not drawn) [SMR000025505], with below 4.30; and `COC(=O)/C(=C1/Oc2cc(C)oc(=O)c2S1)C(F)(F)F` [methyl (2E)-3,3,3-tris(fluoranyl)-2-(6-methyl-4-oxidanylidene-[1,3]oxathiolo[4,5-c]pyran-2-ylidene)propanoate], with 5.85.
Take `CCOc1cccc(-c2nnc3n2N=C(c2cc(OC)ccc2OC)CS3)c1` [MLS000081451]: the pIC50 was below 4.75.
Take `O=S1(=O)C=C(Sc2nnc(-c3ccccc3)o2)c2ccccc21`: the pIC50 is 5.63.
With `CS(=O)(=O)c1nc(-c2ccco2)cc(C(F)(F)F)n1` [MLS000044646] the figure was 5.31.
In turn, `CCn1nc(-c2ccccc2)nc2c(=O)n(C)c(=O)nc1-2` [1-Ethyl-6-methyl-3-phenyl-1H-pyrimido[5,4-e][1,2,4]triazine-5,7-dione] showed a pIC50 of 5.97.
Then `CCn1nc(-c2cccs2)nc2c(=O)n(C)c(=O)nc1-2` [1-ethyl-6-methyl-3-thiophen-2-yl-pyrimido[5,4-e][1,2,4]triazine-5,7-dione], with 6.09; and `CS(=O)(=O)c1nc(-c2cccs2)cc(C(F)(F)F)n1` [MLS000044645], with 5.46.
For the molecule `COc1cc2c(cc1OC)C1=C(C#N)CC=C(NS(=O)(=O)c3ccccc3)N1CC2` [SMR000092093], the pIC50 was below 4.30.
With `Cc1ccc(S(=O)(=O)Nc2cccc3ncccc23)s1` [5-methyl-N-quinolin-5-ylthiophene-2-sulfonamide] the figure was below 4.41.
Then `O=C(Nc1ccc(N2CCOCC2)cc1)Nc1ccc2nc(-c3ccco3)c(-c3ccco3)nc2c1` [N-(2,3-di-2-furyl-6-quinoxalinyl)-N'-[4-(4-morpholinyl)phenyl]urea], with below 4.91; and `COc1cccc(N2CCN(c3ncnc4c3[nH]c3ccccc34)CC2C)c1` (stereo not drawn) [4-[4-(3-methoxyphenyl)-3-methyl-1-piperazinyl]-5H-pyrimido[5,4-b]indole], with 5.37.
With `COc1cccc(N2CCN(c3ncnc4c3[nH]c3ccc(F)cc34)CC2C)c1` (stereo not drawn) [8-fluoranyl-4-[4-(3-methoxyphenyl)-3-methyl-piperazin-1-yl]-5H-pyrimido[5,4-b]indole] the figure was 6.03; with `Cc1ccc(N(CC2=NCCN2)c2cccc(O)c2)cc1` [SMR000059054], below 4.30; with `COc1ccccc1-c1nnc2n1N=C(c1ccc(O)c(O)c1)CS2` [(4E)-4-[3-(2-methoxyphenyl)-5H-[1,2,4]triazolo[3,4-b][1,3,4]thiadiazin-6-ylidene]-2-oxidanyl-cyclohexa-2,5-dien-1-one], below 4.30.
Turning to `COC(=O)Nc1nc2ccc(Sc3ccccc3)cc2[nH]1` [FENBENDAZOLE], the pIC50 was below 4.30.
With `CN(C)c1nc(OCCNC(=O)COc2ccc(Cl)cc2Cl)nc(N2CCCCC2)n1` [SMR000072558] the figure was below 4.30; with `COc1ccc(C2N(c3ccc(F)cc3)C(=O)C3CCCN32)cc1` (stereo not drawn) [SMR000094164], below 4.30.
Then `CC(C)=CCC(C)(C)CNC(=O)NC1CCCCC1`, with below 4.30; and `COc1cc2c(cc1OC)-c1cc(N3CCCc4ccccc43)nc(=O)n1CC2` [2-(3,4-dihydro-2H-quinolin-1-yl)-9,10-dimethoxy-6,7-dihydropyrimido[6,1-a]isoquinolin-4-one], with below 4.75.
With `CS(=O)(=O)c1nc(-c2ccccc2)cc(C(F)(F)F)n1` [MLS000044644] the figure was 5.45; with `COc1ccc(-n2c(O)cc(NCc3ccncc3)c2O)cc1` [MLS000099014], below 4.30; with `CCN(CC)c1ccc2c(Cl)c(Br)c(=O)oc2c1`, 5.77.
Regarding `Clc1ccc(-n2nnnc2Sc2ncnc3sccc23)cc1` [SMR000066808], the pIC50 is 5.12.
Consider `N#C/C(=C/c1ccc(N2CCCCCC2)o1)c1ccc(F)cc1` [MLS000051438], for which the pIC50 is 5.33.
Then `CC(=O)Nc1cc(OC(C)=O)c2nonc2c1OC(C)=O` [Acetic acid 7-acetoxy-5-acetylamino-benzo[1,2,5]oxadiazol-4-yl ester], with 5.74; and `CCCOc1ccc2nc(NC(=O)OC)[nH]c2c1` [SMR000058208], with below 4.30.
Take `O=C(Nc1ccc(-c2nc3ncccc3o2)cc1)c1ccc(Br)o1`: the pIC50 was below 4.30.
With `CCCc1nnc2n1N=C(c1ccc(OC)c(OC)c1)CS2` [SMR000057783] the figure was below 4.30; with `CCn1c(=O)c(C(=O)Nc2nc3ccccc3[nH]2)c(O)c2ccccc21` [MLS000027148], below 4.91; with `COc1cccc(N2CCN(c3ncnc4c3cnn4-c3ccc(C)cc3C)CC2)c1` [SMR000017007], 5.30.
With `CCCOCCOC(=O)c1[nH]c2c(c1C)C(=O)CC(c1cc(OC)ccc1OC)C2` (stereo not drawn) the figure was below 4.41; with `N#CCCS(=O)(=O)c1nnnn1-c1ccccc1` [3-(1-phenyltetrazol-5-yl)sulfonylpropanenitrile], 5.48.
With `CSc1ccccc1NC=C1C(=O)CC(C)(C)CC1=O` [SMR000111352] the figure was 5.36; with `CCC(NC(=O)Nc1nnc(C(F)(F)F)s1)(C(F)(F)F)C(F)(F)F`, below 4.91.

The values above are taken from BindingDB's records for doi:10.7270/Q2D50KC1 (The Scripps Research Institute Molecular Screening Center, 2007).
